Data: patent publication US12729194B2, “Compounds for the treatment of human immunodeficiency virus” (priority 2019, dated 2026)

Tests used:
[1] = system: envelope glycoproteins of the amphotropic murine leukemia virus (AMLV); experiment: microbe, parasite or virus in culture; assay type: cell-based; settings: Cf2Th-CD4/CCR5 target cells, 48 hours, luciferase, specificity control, read-out: 50% inhibitory concentration (IC50), AMLV
HIV-1AD8 Env on VLPs [2] = experiment: Reversibility of compound effects on VLP Env conformation (19b antibody recognition after washing)
Procedure: (§1) Characterization of VLP-associated Env: To prepare VLPs with HIV-1AD8 Env, 150-mm dishes of 30-40% confluent A549-Gag/Env cells were seeded and, on the following day, treated with 2 μg/ml doxycycline. Approximately 72 hours after induction, cell supernatants were harvested and cleared by low-speed centrifugation (500×g for 15 minutes at 4° C.) and 0.45-μ filtration. VLPs were pelleted by centrifugation at 100,000×g for one hour at 4° C. The resuspended VLP preparation was clarified by low-speed centrifugation. BMS-806 and compounds described herein were added to the clarified VLP-containing suspensions. In some cases, the VLP-compound mixtures were irradiated with a 100-watt, 365-nm ultraviolet (UV) lamp for 10 minutes at room temperature. For all UV studies, exposure of the samples to visible light was minimized.
For studies of the reversibility of effects, the compounds were added to the VLPs and mixed for several seconds at room temperature. Then the VLPs were pelleted (20,000×g for 30 minutes at 4° C.) twice, washing with 1.5 ml PBS with 2% DMSO. The pelleted VLPs were resuspended in 1 ml PBS with 2% DMSO and incubated at room temperature for various lengths of time (20 minutes—3 weeks). Control VLPs were incubated in the continued presence of the compounds at room temperature for the same length of time. Then the VLPs were pelleted (20,000×g for 30 minutes at 4° C.) and the pellet incubated with 1.5% Triton X-100 for 30 minutes at 4° C. The VLP lysates were centrifuged (20,000×g for 30 minutes at 4° C.) and the supernatants were incubated with antibodies (10 μg/ml) in a 50-μl volume with 25 mg/ml of Protein A-Sepharose beads for one hour at 4° C. The beads were pelleted (1000 rpm for 1 minute at room temperature) and washed three times with 1 ml wash buffer with 1% Triton X-100. The beads were suspended in NuPAGE LDS Sample Buffer (ThermoFisher), boiled and analyzed by Western blot, as described above.
The BMS-806-induced decrease in binding of the 19b anti-V3 antibody can be used as an indicator of BMS-806-Env binding, allowing estimation of the stability of the Env-compound complex. BMS-806 and BMS-529 were incubated with the HIV-1AD8 Env on VLPs. The VLPs were then washed and incubated at room temperature for various lengths of time in a buffer with (+/+) or without (+/−) compound. After this incubation, Env conformation was assessed using the 19b anti-V3 antibody, the 2G12 antibody (the binding of which is not affected by BMS-806), and a negative control human immunoglobulin (hIgG) preparation. 19b recognition of Env in the washed samples (+/−) was compared with those in the samples continuously incubated with the compound (+/+) and the untreated samples (−) (FIG. 4). […] Despite this slow rate of dissociation of compounds described herein from Env, the binding and the consequent effects of these compounds on Env conformation appear to be reversible.

HIV-1AD8 Env on VLPs [3] = experiment: Shedding of gp120 from VLP Env; settings: 4° C. and 37° C., 4 days, no detergent
Procedure: Shedding of gp120 from VLP Env: The effect of compounds on the spontaneous shedding of gp120 from VLP Env was evaluated. VLPs with the wild-type HIV-1AD8 Env were prepared from the supernatants of A549-Gag/Env cells, as described above. The VLPs were suspended in PBS, to which was added either DMSO or a compound described herein. An aliquot of the VLP suspension in PBS/DMSO was processed as described below to serve as a Day 0 control. The VLP suspensions were incubated for 4 days at 4° C., room temperature or 37° C. (with gentle rocking). Then the VLPs were pelleted (100,000×g for 30 min at 4° C.). The pellets and supernatants were boiled in LDS sample buffer and analyzed by Western blotting with either 1:2000 goat anti-gp120 polyclonal antibody (ThermoFisher) and HRP-conjugated rabbit anti-goat IgG antibody, or with 1:5000 rabbit anti-Gag p55/p24/p17 antibody (Abcam) and HRP-conjugated goat anti-rabbit IgG antibody (Abcam).

[4] = system: HIV-1 with JR-FL S375W Env; assay type: cell-based; settings: Cf2Th-CD4/CCR5 target cells, 48 hours, luciferase; read-out: 50% inhibitory concentration (IC50), JR-FL S375W
VLP HIV-1AD8 Env = experiment: Antibody recognition of VLP-associated Env
Procedure: as §1
For studies of the binding of ligands (antibodies, CD4-Ig and C34-Ig) to detergent-solubilized VLP Env, VLPs prepared as described above were pelleted (20,000×g for 30 minutes at 4° C.). The pellet was incubated with 1.5% Triton X-100 for 30 minutes at 4° C. The VLP lysates were centrifuged (20,000×g for 30 minutes at 4° C.) and the supernatants were incubated with ligands (10 μg/ml) in a 50-μl volume with 25 mg/ml of Protein A-Sepharose beads for one hour at 4° C. The beads were pelleted (1000 rpm for 1 minute at room temperature), washed three times with 1 ml wash buffer with 1% Triton X-100, suspended in LDS Sample Buffer and analyzed by Western blot, as described above.
In a second assay format, the effect of the compounds was analyzed on the binding of antibodies to Env on intact VLPs, in the absence of detergent. In this case, VLPs in A549-Gag/Env supernatants, clarified as described above, were pelleted at 100,000×g for one hour at 4° C. The pellet was resuspended in PBS and the VLPs pelleted at 20,000×g for 30 minutes at 4° C. The VLPs were resuspended in PBS and incubated with antibodies (10 μg/ml) in a 100-μl volume for one hour at 4° C. The VLPs were then pelleted (20,000×g for 30 minutes at 4° C.) and washed with PBS three times. The VLP pellet was then solubilized in 1.5% Triton X-100 for 30 minutes at 4° C., after which the VLP lysates were clarified by centrifugation at 20,000×g for 30 minutes at 4° C. The supernatants were incubated with 50 μl of Protein A-Sepharose beads for one hour at 4° C. The beads were pelleted (1000 rpm for 1 minute at room temperature), washed three times with 1 ml wash buffer with 1% Triton X-100, suspended in LDS Sample Buffer, and analyzed by Western blot, as described above.

[5] = system: HIV-1 with HIV-1JR-FL Env; experiment: microbe, parasite or virus in culture; assay type: cell-based; settings: Human immunodeficiency virus 1; Cf2Th-CD4/CCR5 target cells, 48 hours, luciferase; means and standard errors of four experiments; read-out: 50% inhibitory concentration (IC50), JR-FL

Structure (SMILES)	IC50 [1] [µM]	Durability / reversibility of Env conformational effects (in words) (HIV-1AD8 Env on VLPs [2]; after washing)	Spontaneous shedding of gp120 into the VLP supernatant (HIV-1AD8 Env on VLPs [3])	IC50 [4] [µM]	VLP Env recognition by poorly neutralizing antibodies two weeks after treatment (VLP HIV-1AD8 Env; compound plus UV irradiation, washed, two weeks without compound)	VLP Env recognition by bNAbs two weeks after treatment (VLP HIV-1AD8 Env; compound plus UV irradiation, PG9, PGT145, PGT151, 35022, 2F5, 4E10, 10E8)	IC50 [5] [µM]	Conformational effect on 19b binding after washing (HIV-1AD8 Env on VLPs [2]; twenty-four hours after washing, room temperature)	Recognition of VLP Env by poorly neutralizing antibodies (VLP HIV-1AD8 Env)	Recognition of mature VLP gp120 Env by quaternary-epitope bNAbs (VLP HIV-1AD8 Env; PG9, PG16, PGT145, PGT151, 35O22)
COc1ccc(-c2ccc(CNC(=O)c3c(F)c(F)c(N=[N+]=[N-])c(F)c3F)o2)c2[nH]cc(C(=O)C(=O)N3CCN(C(=O)c4ccccc4)CC3)c12 [AEG-II-168]	> 0.1	at least three weeks	decreased the shedding of gp120	> 0.1	lowered Env recognition by poorly neutralizing antibodies	increased recognition by several bNAbs	0.0015			
COc1ccnc2[nH]cc(C(=O)C(=O)N3CCN(C(=O)c4ccccc4)C[C@H]3C)c12 [BMS-806, reference compound]	> 0.1		decreased the shedding of gp120	> 0.1			0.0016	much less evident	reduced recognition of the uncleaved Env	enhanced the recognition of the mature gp120 Env
